What all share (type): in vitro ADME
One series concerns the target T1, CYP2C8 (Homo sapiens, UniProt P10632).
T1 construct: co-incubation ticagrelor-O-Glu with selective P450 probe substrates in HLM; tissue XenoTech LLC; host or cells: pooled human liver microsomes
As to the kind of experiment: CYP2C8 inhibition in HLM (amodiaquine N-deethylase). Particulars: HLM 0.2 mg/ml. How it is done:
(§1) The potential inhibitory effects of ticagrelor-O-Glu on the activities of major CYPs, i.e., CYP2B6, CYP2C8, CYP2C9, CYP2C19, CYP2D6, and CYP3A4, were evaluated by co-incubation ticagrelor-O-Glu with selective P450 probe substrates in HLM. Each incubation mixture containing 0.2 mg/ml HLM, ticagrelor-O-Glu and respective substrate (the final substrate concentrations are close to or less than the Km values: 150 μM bupropion, 1.26 μM amodiaquine, 10 μM diclofenac, 20 μM mephenytoin, 20 μM dextromethorphan and 80 μM testosterone (in house data)) in potassium phosphate buffer (100 mM, pH 7.4) was pre-incubated at 37°C for 5 min. Then, NADPH (10 mM) was added to initiate the reaction. The final volume of the incubation mixture was 100 μl. After incubation at 37°C for specific time points, the reaction was terminated by the addition of 200 μl of ice-cold methanol solution with internal standards (diazepam and furafylline). […] The formation of respective metabolites was determined to reflect P450 isoform activities. The metabolites quantified for CYP2B6, CYP2C8, CYP2C9, CYP2C19, CYP2D6, and CYP3A4 were hydroxy bupropion, N-Desethyl amodiaquine, 4′-hydroxylation diclofenac, S-4-hydroxy mephenytoin, dextrorphan and 6β-hydroxy testosterone, respectively.
(§2) The percent inhibition relative to the control was calculated to indicate the UGTs or CYPs inhibition. […]

The target of another series is T2, CYP3A4 (Homo sapiens, UniProt P08684).
T2 construct: co-incubation ticagrelor-O-Glu with selective P450 probe substrates in HLM; tissue XenoTech LLC; host or cells: pooled human liver microsomes
T2 sequence (P08684 whole entry): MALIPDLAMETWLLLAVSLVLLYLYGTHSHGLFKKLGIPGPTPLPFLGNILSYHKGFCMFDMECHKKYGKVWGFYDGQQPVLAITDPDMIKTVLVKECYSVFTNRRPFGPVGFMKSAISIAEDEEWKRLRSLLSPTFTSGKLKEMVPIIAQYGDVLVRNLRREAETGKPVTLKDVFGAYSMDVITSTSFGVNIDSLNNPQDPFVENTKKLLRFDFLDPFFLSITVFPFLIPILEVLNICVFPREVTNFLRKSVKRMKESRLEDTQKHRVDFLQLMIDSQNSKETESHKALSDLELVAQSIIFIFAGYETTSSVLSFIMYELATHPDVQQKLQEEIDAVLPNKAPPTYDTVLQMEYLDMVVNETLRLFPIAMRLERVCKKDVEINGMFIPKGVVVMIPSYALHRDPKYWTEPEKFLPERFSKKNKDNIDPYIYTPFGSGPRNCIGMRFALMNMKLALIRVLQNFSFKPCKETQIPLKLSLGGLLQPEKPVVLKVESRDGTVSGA
As to the kind of experiment: CYP3A4 inhibition in HLM (testosterone 6β-hydroxylase). Particulars: human liver microsomes, pH 7.4, probe testosterone (80 μM), 6β-hydroxy testosterone formation. How it is done:
as §1, §2
For orientation: Liver microsomes are a subcellular fraction often used to study metabolism.

For the next series, the target named is T3, CYP2B6 (Homo sapiens, UniProt P20813).
T3 construct: co-incubation ticagrelor-O-Glu with selective P450 probe substrates in HLM; tissue XenoTech LLC; host or cells: pooled human liver microsomes
T3 sequence (P20813 1-491): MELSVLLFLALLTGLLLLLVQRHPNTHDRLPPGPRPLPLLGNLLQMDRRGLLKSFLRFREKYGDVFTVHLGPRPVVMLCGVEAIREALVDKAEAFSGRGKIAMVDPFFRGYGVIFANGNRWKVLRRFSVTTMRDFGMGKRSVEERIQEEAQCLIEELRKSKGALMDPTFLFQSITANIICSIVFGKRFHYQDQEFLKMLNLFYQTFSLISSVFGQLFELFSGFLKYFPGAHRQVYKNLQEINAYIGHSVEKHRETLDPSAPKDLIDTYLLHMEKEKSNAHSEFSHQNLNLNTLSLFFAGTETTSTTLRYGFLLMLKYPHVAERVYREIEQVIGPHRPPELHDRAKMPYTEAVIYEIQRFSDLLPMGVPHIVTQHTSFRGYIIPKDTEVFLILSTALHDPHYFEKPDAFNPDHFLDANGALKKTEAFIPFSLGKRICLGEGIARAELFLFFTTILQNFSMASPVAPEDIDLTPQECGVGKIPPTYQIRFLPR
The experiment in a line: CYP2B6 inhibition in HLM (bupropion hydroxylase). The procedure: The potential inhibitory effects of ticagrelor-O-Glu on the activities of major CYPs, i.e., CYP2B6, CYP2C8, CYP2C9, CYP2C19, CYP2D6, and CYP3A4, were evaluated by co-incubation ticagrelor-O-Glu with selective P450 probe substrates in HLM. Each incubation mixture containing 0.2 mg/ml HLM, ticagrelor-O-Glu and respective substrate (the final substrate concentrations are close to or less than the Km values: 150 μM bupropion, 1.26 μM amodiaquine, 10 μM diclofenac, 20 μM mephenytoin, 20 μM dextromethorphan and 80 μM testosterone (in house data)) in potassium phosphate buffer (100 mM, pH 7.4) was pre-incubated at 37°C for 5 min. Then, NADPH (10 mM) was added to initiate the reaction. The final volume of the incubation mixture was 100 μl. After incubation at 37°C for specific time points, the reaction was terminated by the addition of 200 μl of ice-cold methanol solution with internal standards (diazepam and furafylline). Preliminary screening experiments with selected concentrations of ticagrelor-O-Glu (0, 1, 10, or 100 μM of the final concentration) were carried out to determine the inhibition potency. For those that produced approximately 50% inhibition of CYPs enzyme activities at a ticagrelor-O-Glu concentration between 1 and 100 μM, IC50 was further determined with various concentrations of ticagrelor-O-Glu (0, 1, 5, 10, 20, 50, and 100 μM). All the experiments were performed in triplicates. The supernatant was obtained after centrifugation at 14,000 rpm for 10 min and injected into LC-MS/MS for the analysis of the respective metabolites. The formation of respective metabolites was determined to reflect P450 isoform activities. The metabolites quantified for CYP2B6, CYP2C8, CYP2C9, CYP2C19, CYP2D6, and CYP3A4 were hydroxy bupropion, N-Desethyl amodiaquine, 4′-hydroxylation diclofenac, S-4-hydroxy mephenytoin, dextrorphan and 6β-hydroxy testosterone, respectively.
as §2

The target in a further series is T4, UGT1A8 (Homo sapiens, UniProt Q9HAW9).
T4 construct: purchased BD Gentest; host or cells: baculovirus-infected insect cells
T4 sequence (Q9HAW9 26-530): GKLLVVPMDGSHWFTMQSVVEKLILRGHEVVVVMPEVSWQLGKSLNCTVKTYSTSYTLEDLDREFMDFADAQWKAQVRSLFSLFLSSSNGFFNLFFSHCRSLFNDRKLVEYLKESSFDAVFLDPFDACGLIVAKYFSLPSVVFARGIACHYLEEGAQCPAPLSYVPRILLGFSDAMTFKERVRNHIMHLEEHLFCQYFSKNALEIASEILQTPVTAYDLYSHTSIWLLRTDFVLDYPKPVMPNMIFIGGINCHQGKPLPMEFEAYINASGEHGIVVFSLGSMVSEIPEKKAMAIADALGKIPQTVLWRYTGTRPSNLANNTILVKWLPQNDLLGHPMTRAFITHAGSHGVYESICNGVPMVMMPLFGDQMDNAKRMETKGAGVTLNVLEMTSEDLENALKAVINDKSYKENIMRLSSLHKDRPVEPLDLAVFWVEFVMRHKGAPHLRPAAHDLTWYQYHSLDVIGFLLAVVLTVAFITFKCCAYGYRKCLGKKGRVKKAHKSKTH
The experiment in a line: Ticagrelor glucuronidation by recombinant human UGT1A8. The settings on record: recombinant human UGT1A8, pH 7.4. The procedure:
Ticagrelor glucuronidation was investigated in an in vitro incubation system by using HLM, HIM, and recombinant human UGTs. The incubation system consisted of enzyme sources (HLM, HIM, or human recombinant UGTs), various concentrations of ticagrelor (dissolved in 50% methanol, 1% v/v, 1, 2, 5, 10, 20, 50, 100, 200, 500 μM of final concentration), alamethicin (50 μg/mg protein), 5 mM MgCl2, 100 mM tris-HCL buffer (pH 7.4), and 5 mM UDPGA in a total volume of 100 μl. Alamethicin is a pore-forming polypeptide used to activate UGTs in HLM and HIM ([Fisher et al., 2000]). Preliminary studies were conducted to determine the optimal protein concentrations and incubation times. Linear conditions of ticagrelor-O-Glu formation from ticagrelor, i.e., HLM, 0.2 mg of protein/ml and 60 min, HIM, 0.2 mg of protein/ml and 60 min, and recombinant human UGTs, 0.2 mg of protein/ml and 60 min were selected. The incubation mixture without UDPGA was placed on ice for 15 min to activate UGT by alamethicin. […]
Kinetic analyses were performed using the mean values of triplicate determinations with either pooled HLM, HIM, or recombinant human UGTs. All data were analyzed by nonlinear regression analysis using the GraphPad Prism 6 (GraphPad Software Inc., CA, United States). […] Intrinsic clearance (CLint) was calculated by dividing Vmax by Km.

What is called IC50 is the concentration that gives 50% inhibition. Higher therefore signals a need for much substance. What is called inhibition is the drop in the measured response relative to a control, in per cent. The microsomal CLint is the rate of metabolic loss divided by the concentration.

T1 sequence (P10632 whole entry): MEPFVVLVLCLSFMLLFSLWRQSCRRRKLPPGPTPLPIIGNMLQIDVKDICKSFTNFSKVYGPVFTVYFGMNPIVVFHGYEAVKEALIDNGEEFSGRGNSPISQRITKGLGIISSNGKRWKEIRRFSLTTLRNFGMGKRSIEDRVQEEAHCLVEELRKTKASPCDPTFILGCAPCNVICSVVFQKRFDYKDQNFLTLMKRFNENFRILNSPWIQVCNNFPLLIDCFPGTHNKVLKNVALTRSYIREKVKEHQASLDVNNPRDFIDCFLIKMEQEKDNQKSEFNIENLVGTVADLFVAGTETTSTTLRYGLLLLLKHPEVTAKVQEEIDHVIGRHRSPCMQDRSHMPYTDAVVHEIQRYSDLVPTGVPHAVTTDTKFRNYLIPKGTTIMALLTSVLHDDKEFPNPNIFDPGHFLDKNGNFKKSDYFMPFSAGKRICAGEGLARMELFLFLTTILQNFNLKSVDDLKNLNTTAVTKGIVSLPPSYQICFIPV

Turning to `CCCSc1nc(N[C@@H]2C[C@H]2c2ccc(F)c(F)c2)c2nnn([C@@H]3C[C@H](OCCO[C@@H]4O[C@H](C(=O)O)[C@@H](O)[C@H](O)[C@H]4O)[C@@H](O)[C@H]3O)c2n1` [Ticagrelor-O-Glu, ticagrelor-O-glucuronide], the IC50 on CYP2C8 is above 100 µM; at CYP3A4 (CYP3A4, testosterone 6β-hydroxylase, HLM 0.2 mg/ml), above 100 µM; at CYP2B6 (CYP2B6, bupropion hydroxylase, HLM 0.2 mg/ml) it was 45 µM. Besides, the inhibition at 100 µM at CYP3A4 (HLM, 100 μM ticagrelor-O-Glu, read-out: inhibition of CYP3A4 enzyme activity) worked out at 57.1%; at CYP2B6 (human, human liver microsomes, pH 7.4, probe bupropion (150 μM), hydroxy bupropion formation, HLM, 100 μM ticagrelor-O-Glu), 77.9%. Besides, on CYP2B6 (human, human liver microsomes, pH 7.4, probe bupropion (150 μM), hydroxy bupropion formation, HLM, 10 μM ticagrelor-O-Glu), the inhibition at 10 μM was 19.1%.
`CCCSc1nc(N[C@@H]2C[C@H]2c2ccc(F)c(F)c2)c2nnn([C@@H]3C[C@H](OCCO)[C@@H](O)[C@H]3O)c2n1` [Ticagrelor]: the microsomal CLint on UGT1A8 is 0.01 µL/min/mg.
